Publication PMC3813382 (The Journal of General Physiology, 2013)
Positions count from the first letter of the chain named.

How the values were obtained:
F258A Slo2.1 channels = biological target: T1, F258A Slo2.1 channels (Homo sapiens, UniProt Q6UVM3, F258A); assay: Activation of ISlo2.1 by NFA, two-electrode voltage clamp in oocytes; type: cell-based
T1 sequence (Q6UVM3 1-1135 F258A): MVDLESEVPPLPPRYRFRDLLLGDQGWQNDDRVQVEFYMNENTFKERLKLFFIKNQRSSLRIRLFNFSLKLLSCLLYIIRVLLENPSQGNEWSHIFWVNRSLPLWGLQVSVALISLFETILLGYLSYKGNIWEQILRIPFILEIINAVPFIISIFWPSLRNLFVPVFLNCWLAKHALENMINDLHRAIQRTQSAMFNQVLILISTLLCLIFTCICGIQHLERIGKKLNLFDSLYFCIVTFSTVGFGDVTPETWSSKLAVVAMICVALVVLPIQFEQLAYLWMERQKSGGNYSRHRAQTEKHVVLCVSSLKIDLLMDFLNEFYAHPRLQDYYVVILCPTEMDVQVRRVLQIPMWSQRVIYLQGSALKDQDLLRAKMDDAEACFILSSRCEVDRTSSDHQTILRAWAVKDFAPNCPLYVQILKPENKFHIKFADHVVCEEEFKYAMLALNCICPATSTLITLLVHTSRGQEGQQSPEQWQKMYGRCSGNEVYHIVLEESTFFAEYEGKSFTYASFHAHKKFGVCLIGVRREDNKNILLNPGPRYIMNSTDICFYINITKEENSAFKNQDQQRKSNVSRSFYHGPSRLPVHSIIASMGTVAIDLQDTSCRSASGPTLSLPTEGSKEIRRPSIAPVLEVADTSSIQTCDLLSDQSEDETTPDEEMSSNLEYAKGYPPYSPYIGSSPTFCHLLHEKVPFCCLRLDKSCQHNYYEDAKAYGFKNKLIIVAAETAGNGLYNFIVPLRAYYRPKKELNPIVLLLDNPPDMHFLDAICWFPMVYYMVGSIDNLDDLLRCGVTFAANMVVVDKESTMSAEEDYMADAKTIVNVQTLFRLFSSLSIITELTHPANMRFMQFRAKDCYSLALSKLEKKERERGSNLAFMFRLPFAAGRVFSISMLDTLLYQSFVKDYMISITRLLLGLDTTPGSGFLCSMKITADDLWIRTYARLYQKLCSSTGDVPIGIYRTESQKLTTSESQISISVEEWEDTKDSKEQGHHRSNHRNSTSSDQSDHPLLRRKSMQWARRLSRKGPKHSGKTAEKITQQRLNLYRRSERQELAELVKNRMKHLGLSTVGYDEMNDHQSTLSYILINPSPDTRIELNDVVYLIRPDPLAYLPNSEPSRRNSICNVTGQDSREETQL

WT Slo2.1 channels = biological target: T2, WT Slo2.1 channels (Homo sapiens, UniProt Q6UVM3); conditions: 1 mM NFA; ref Dai et al., 2010; cited from earlier work
T2 sequence (Q6UVM3 1-1135): T1 sequence (Q6UVM3 1-1135 F258A) with A258F

EC50 (F258A Slo2.1 channels): 400 ± 50 µM
Hill coefficient nH of NFA activation (F258A Slo2.1 channels; F258A): 1.2 ± 0.08
SMILES: O=C(O)c1cccnc1Nc1cccc(C(F)(F)F)c1 [NFA, niflumic acid]
effective valence z (WT Slo2.1 channels): 0.48 e
midpoint of voltage dependence of channel activation (WT Slo2.1 channels): +95 mV
